Source: ChEMBL document CHEMBL1145107, “Peptide science: exploring the use of chemical principles and interdisciplinary collaboration for understanding life processes” (J Med Chem, 2003)
pEC50, pIC50, pKi: −log10 of the molar value. Where a SMILES comes first, the peptide text is derived from it. [ ]: non-standard residue; d: D form. NMeNle = CCCC[C@H](NC)C(=O)O; dNle = CCCC[C@@H](N)C(=O)O

Experiments:
Anolis carolinensis [1] = assay: Biological activity using the lizard skin (Anolis carolinensis) assay. The value indicates prolonged biological activity; assay type: functional, organism-based
[2] = Biological activity using the frog skin (Rana pipiens) assay. The value indicates prolonged biological activity; assay type: functional
Oxytocin receptor = molecular target: T1, Oxytocin receptor (Homo sapiens, UniProt P30559); assay: Binding affinity towards oxytocin receptor
T1 sequence (P30559 whole entry): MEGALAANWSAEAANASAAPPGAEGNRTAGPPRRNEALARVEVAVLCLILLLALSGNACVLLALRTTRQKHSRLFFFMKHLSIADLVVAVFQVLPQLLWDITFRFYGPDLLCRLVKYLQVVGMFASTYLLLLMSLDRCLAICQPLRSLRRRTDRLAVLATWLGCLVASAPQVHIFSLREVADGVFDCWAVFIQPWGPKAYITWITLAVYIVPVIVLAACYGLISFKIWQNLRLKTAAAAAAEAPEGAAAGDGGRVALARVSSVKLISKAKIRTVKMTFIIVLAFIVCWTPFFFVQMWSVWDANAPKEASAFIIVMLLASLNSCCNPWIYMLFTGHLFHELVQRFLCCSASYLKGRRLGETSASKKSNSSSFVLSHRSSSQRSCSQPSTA

Anolis carolinensis [3] = assay: Biological activity using the lizard skin (Anolis carolinensis) assay. The value indicates no prolonged biological activity; assay type: functional, organism-based
[4] = Biological activity using the frog skin (Rana pipiens) assay. The value indicates no prolonged biological activity; assay type: functional
[5] = molecular target: T2, Gastrin/cholecystokinin type B receptor (Homo sapiens, UniProt P32239); assay: Binding affinity towards Cholecystokinin type B receptor (CCK-B) receptor was determined
T2 sequence (P32239 whole entry): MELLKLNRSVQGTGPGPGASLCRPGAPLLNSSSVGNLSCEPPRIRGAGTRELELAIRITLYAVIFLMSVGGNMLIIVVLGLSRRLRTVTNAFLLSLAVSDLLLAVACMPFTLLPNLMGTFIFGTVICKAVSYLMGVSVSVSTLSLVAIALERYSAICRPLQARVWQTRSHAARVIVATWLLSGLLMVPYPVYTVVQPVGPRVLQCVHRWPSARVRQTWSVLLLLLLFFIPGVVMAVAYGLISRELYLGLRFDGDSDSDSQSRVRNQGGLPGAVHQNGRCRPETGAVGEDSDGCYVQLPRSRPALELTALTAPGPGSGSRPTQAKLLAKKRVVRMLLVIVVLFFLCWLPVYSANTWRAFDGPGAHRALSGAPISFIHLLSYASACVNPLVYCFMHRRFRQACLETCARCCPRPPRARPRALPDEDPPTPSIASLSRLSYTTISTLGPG

[6] = molecular target: Delta-type opioid receptor (Homo sapiens, UniProt P41143); assay: Binding affinity towards Opioid receptor delta 1 was determined
Chain of Delta-type opioid receptor (Homo sapiens, UniProt P41143) (P41143 whole entry): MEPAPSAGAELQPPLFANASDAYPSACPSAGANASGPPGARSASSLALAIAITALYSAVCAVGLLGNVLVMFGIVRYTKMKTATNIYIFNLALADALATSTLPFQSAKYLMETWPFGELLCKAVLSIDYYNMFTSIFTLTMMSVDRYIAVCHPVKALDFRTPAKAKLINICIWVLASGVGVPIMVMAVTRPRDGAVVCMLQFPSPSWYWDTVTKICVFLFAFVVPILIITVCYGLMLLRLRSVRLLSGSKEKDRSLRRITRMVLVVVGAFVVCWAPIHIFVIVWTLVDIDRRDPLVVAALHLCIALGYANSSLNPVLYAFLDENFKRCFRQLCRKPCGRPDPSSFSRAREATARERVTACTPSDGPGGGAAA

Mu-type opioid receptor [7] = molecular target: T3, Mu-type opioid receptor (Homo sapiens, UniProt P35372); assay: Binding affinity towards Opioid receptor mu 1 was determined
T3 sequence (P35372 whole entry): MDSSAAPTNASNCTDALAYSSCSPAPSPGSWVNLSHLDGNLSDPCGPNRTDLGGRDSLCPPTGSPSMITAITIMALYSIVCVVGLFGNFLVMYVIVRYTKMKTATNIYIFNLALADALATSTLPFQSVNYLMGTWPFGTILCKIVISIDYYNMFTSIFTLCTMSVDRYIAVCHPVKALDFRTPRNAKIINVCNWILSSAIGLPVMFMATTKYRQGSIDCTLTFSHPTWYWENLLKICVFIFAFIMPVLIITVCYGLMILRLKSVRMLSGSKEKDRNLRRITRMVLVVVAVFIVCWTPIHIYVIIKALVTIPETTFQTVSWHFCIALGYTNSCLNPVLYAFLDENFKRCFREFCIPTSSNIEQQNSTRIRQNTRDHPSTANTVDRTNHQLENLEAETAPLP

Mu-type opioid receptor [8] = molecular target: T3, Mu-type opioid receptor; assay: Binding affinity towards Opioid receptor mu 1 using [3H]- CTOP as radioligand
[9] = molecular target: T4, Cholecystokinin receptor type A (Homo sapiens, UniProt P32238); assay: Binding affinity towards Cholecystokinin type A receptor (CCK-A) receptor was determined
T4 sequence (P32238 whole entry): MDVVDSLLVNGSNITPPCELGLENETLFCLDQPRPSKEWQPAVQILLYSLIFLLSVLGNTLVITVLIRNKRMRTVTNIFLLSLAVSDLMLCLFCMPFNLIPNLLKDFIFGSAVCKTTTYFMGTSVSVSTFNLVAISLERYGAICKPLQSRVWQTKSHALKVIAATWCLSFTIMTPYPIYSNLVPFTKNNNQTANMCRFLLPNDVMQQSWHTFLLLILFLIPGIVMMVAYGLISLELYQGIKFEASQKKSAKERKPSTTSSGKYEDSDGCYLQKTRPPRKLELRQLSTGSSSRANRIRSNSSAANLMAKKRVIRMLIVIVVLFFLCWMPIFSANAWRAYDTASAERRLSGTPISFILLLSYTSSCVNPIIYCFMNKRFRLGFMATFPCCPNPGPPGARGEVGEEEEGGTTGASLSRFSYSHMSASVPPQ

[10] = molecular target: Delta-type opioid receptor (Rattus norvegicus, UniProt P33533); assay: Binding affinity towards Opioid receptor delta 1 using [3H]- [p-CIPhe4] DPDPE as radioligand
Chain of Delta-type opioid receptor (Rattus norvegicus, UniProt P33533) (P33533 whole entry): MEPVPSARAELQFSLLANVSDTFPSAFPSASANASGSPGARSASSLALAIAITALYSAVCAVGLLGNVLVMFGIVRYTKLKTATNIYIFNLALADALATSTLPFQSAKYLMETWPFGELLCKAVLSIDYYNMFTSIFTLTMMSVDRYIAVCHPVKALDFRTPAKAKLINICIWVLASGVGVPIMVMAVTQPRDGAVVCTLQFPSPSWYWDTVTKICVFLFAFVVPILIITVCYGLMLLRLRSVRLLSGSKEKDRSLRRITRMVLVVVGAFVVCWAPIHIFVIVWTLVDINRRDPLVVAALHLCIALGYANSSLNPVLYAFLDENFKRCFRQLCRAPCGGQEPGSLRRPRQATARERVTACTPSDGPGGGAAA

CCCC[C@H](NC(C)=O)C(=O)N[C@H]1CC(=O)NCCCC[C@@H](C(N)=O)NC(=O)[C@@H]([C@H](C)c2c[nH]c3ccccc23)NC(=O)[C@H](CCCN=C(N)N)NC(=O)[C@@H](Cc2ccccc2)NC(=O)[C@H](Cc2c[nH]cn2)NC1=O
pEC50 (Anolis carolinensis [1]): 9.00 | pEC50 [2]: 9.48

CC[C@H](C)[C@@H]1NC(=O)[C@H](Cc2ccc(O)cc2)NC(=O)[C@H](N)C(C)(C)SSC[C@@H]2NC(=O)[C@H](CC(N)=O)NC(=O)[C@H](CCC(=O)NCCCC[C@@H](C(=O)NCC(N)=O)NC(=O)[C@@H]3CCCN3C2=O)NC1=O
pIC50 (Oxytocin receptor): 6.89

CCCC[C@H](NC(C)=O)C(=O)N[C@H]1CC(=O)NCCC[C@@H](C(N)=O)NC(=O)[C@H](Cc2c[nH]c3ccccc23)NC(=O)[C@H](CCCN=C(N)N)NC(=O)[C@@H](Cc2ccccc2)NC(=O)[C@H](Cc2c[nH]cn2)NC1=O
pEC50 (Anolis carolinensis [3]): 10.30 | pEC50 [4]: 9.30

CCCC[C@H](NC(C)=O)C(=O)N[C@H]1CC(=O)NCCCC[C@@H](C(N)=O)NC(=O)[C@H]([C@H](C)c2c[nH]c3ccccc23)NC(=O)[C@H](CCCN=C(N)N)NC(=O)[C@@H](Cc2ccccc2)NC(=O)[C@H](Cc2c[nH]cn2)NC1=O
pEC50 (Anolis carolinensis [3]): 8.17 | pEC50 [4]: 7.54

CCCC[C@H](NC(C)=O)C(=O)N[C@H]1CC(=O)NCCCC[C@@H](C(N)=O)NC(=O)[C@H]([C@@H](C)c2c[nH]c3ccccc23)NC(=O)[C@H](CCCN=C(N)N)NC(=O)[C@@H](Cc2ccccc2)NC(=O)[C@H](Cc2c[nH]cn2)NC1=O
pEC50 (Anolis carolinensis [1]): 9.00 | pEC50 [4]: 9.36

CC[C@H](C)[C@@H]1NC(=O)[C@@H]([C@@H](C)c2c(C)cc(OC)cc2C)NC(=O)[C@H](N)C(C)(C)SSC[C@@H]2NC(=O)[C@@H](CC(N)=O)NC(=O)[C@@H](CCC(=O)NCCCC[C@H](C(=O)NCC(N)=O)NC(=O)[C@H]3CCCN3C2=O)NC1=O
pIC50 (Oxytocin receptor): 4.44

CCCC[C@H](NC(C)=O)C(=O)N[C@H]1CC(=O)NC[C@@H](C(N)=O)NC(=O)[C@H](Cc2c[nH]c3ccccc23)NC(=O)[C@H](CCCN=C(N)N)NC(=O)[C@@H](Cc2ccccc2)NC(=O)[C@H](Cc2c[nH]cn2)NC1=O
pEC50 (Anolis carolinensis [3]): 9.70 | pEC50 [4]: 7.30

CCCC[C@@H](C(=O)N[C@@H](CC(=O)O)C(=O)N[C@@H](Cc1ccccc1)C(N)=O)N(C)C(=O)[C@@H](Cc1c[nH]c2ccccc12)NC(=O)CNC(=O)[C@@H](Cc1ccccc1)NC(=O)[C@@H](N)Cc1ccc(O)cc1 (H-Y[dF]G[dW][NMeNle]DF-NH2)
pKi [5]: 8.80 | pKi [6]: 9.30 | pKi (Mu-type opioid receptor [7]): 8.24

CCCC[C@H](NC(C)=O)C(=O)N[C@H]1CC(=O)NCCCC[C@@H](C(N)=O)NC(=O)[C@@H]([C@@H](C)c2c[nH]c3ccccc23)NC(=O)[C@H](CCCN=C(N)N)NC(=O)[C@@H](Cc2ccccc2)NC(=O)[C@H](Cc2c[nH]cn2)NC1=O
pEC50 (Anolis carolinensis [1]): 8.84 | pEC50 [2]: 10.22

Cc1cc(O)cc(C)c1[C@@H](C)[C@H](N)C(=O)N[C@H]1C(=O)NCC(=O)N[C@@H](Cc2ccccc2)C(=O)N[C@@H](C(=O)O)C(C)(C)SSC1(C)C
pIC50 (Mu-type opioid receptor [8]): 5.37

CCCC[C@@H](NC(=O)[C@@H](N)Cc1ccc(O)cc1)C(=O)NCC(=O)N[C@@H](Cc1c[nH]c2ccccc12)C(=O)N(C)[C@@H](CCCC)C(=O)N[C@@H](CC(=O)O)C(=O)N[C@@H](Cc1ccccc1)C(N)=O (H-Y[dNle]GW[NMeNle]DF-NH2)
pKi [9]: 5.41 | pKi [5]: 9.22 | pKi [6]: 8.80 | pKi (Mu-type opioid receptor [7]): 7.60

CCCC[C@H](NC(C)=O)C(=O)N[C@H]1CC(=O)NCC[C@@H](C(N)=O)NC(=O)[C@H](Cc2c[nH]c3ccccc23)NC(=O)[C@H](CCCN=C(N)N)NC(=O)[C@@H](Cc2ccccc2)NC(=O)[C@H](Cc2c[nH]cn2)NC1=O
pEC50 (Anolis carolinensis [3]): 9.70 | pEC50 [4]: 9.30

Cc1cc(O)cc(C)c1[C@H](C)[C@H](N)C(=O)N[C@H]1C(=O)NCC(=O)N[C@@H](Cc2ccccc2)C(=O)N[C@@H](C(=O)O)C(C)(C)SSC1(C)C
pIC50 [10]: 6.68 | pIC50 (Mu-type opioid receptor [8]): 6.14

CC[C@H](C)[C@@H]1NC(=O)[C@H]([C@@H](C)c2c(C)cc(OC)cc2C)NC(=O)[C@H](N)C(C)(C)SSC[C@@H]2NC(=O)[C@H](CC(N)=O)NC(=O)[C@H](CCC(=O)NCCCC[C@@H](C(=O)NCC(N)=O)NC(=O)[C@@H]3CCCN3C2=O)NC1=O
pIC50 (Oxytocin receptor): 8.10

CCCC[C@H](NC(C)=O)C(=O)N[C@H]1CCC(=O)NCCCC[C@@H](C(=O)NCC(=O)N2CCC[C@H]2C(=O)N[C@H](C(N)=O)C(C)C)NC(=O)[C@H](Cc2c[nH]c3ccccc23)NC(=O)[C@H](CCCN=C(N)N)NC(=O)[C@@H](Cc2ccccc2)NC(=O)[C@H](Cc2c[nH]cn2)NC1=O
pEC50 (Anolis carolinensis [1]): 9.77 | pEC50 [2]: 9.30

CCCC[C@@H](C(=O)N[C@@H](CC(=O)O)C(=O)N[C@@H](Cc1ccccc1)C(N)=O)N(C)C(=O)[C@H](Cc1c[nH]c2ccccc12)NC(=O)[C@H](CCC(=O)O)NC(=O)[C@@H](Cc1ccccc1)NC(=O)[C@@H](N)Cc1ccc(O)cc1
pKi [9]: 5.00 | pKi [5]: 8.68 | pKi [6]: 8.17 | pKi (Mu-type opioid receptor [7]): 6.87

CCCC[C@@H](C(=O)N[C@@H](CC(=O)O)C(=O)N[C@@H](Cc1ccccc1)C(N)=O)N(C)C(=O)[C@H](Cc1c[nH]c2ccccc12)NC(=O)CNC(=O)CNC(=O)[C@@H](N)Cc1ccc(O)cc1 (H-YGGW[NMeNle]DF-NH2)
pKi [9]: 6.06 | pKi [5]: 8.89 | pKi [6]: 5.70 | pKi (Mu-type opioid receptor [7]): 6.21

CC[C@H](C)[C@@H]1NC(=O)[C@@H]([C@H](C)c2c(C)cc(OC)cc2C)NC(=O)[C@H](N)C(C)(C)SSC[C@@H]2NC(=O)[C@H](CC(N)=O)NC(=O)[C@H](CCC(=O)NCCCC[C@@H](C(=O)NCC(N)=O)NC(=O)[C@@H]3CCCN3C2=O)NC1=O
pIC50 (Oxytocin receptor): 6.80

CC[C@H](C)[C@@H]1NC(=O)[C@H]([C@H](C)c2c(C)cc(OC)cc2C)NC(=O)[C@H](N)C(C)(C)SSC[C@@H]2NC(=O)[C@@H](CC(N)=O)NC(=O)[C@@H](CCC(=O)NCCCC[C@H](C(=O)NCC(N)=O)NC(=O)[C@H]3CCCN3C2=O)NC1=O
pIC50 (Oxytocin receptor): 4.72

CCCC[C@@H](C(=O)N[C@@H](CC(=O)O)C(=O)N[C@@H](Cc1ccccc1)C(N)=O)N(C)C(=O)[C@H](Cc1c[nH]c2ccccc12)NC(=O)CNC(=O)[C@@H](Cc1ccccc1)NC(=O)[C@H](Cc1ccc(O)cc1)NC(=O)[C@@H](N)CC(=O)O
pKi [9]: 5.48 | pKi (Mu-type opioid receptor [7]): 5.28

CCCC[C@@H](C(=O)N[C@@H](CC(=O)O)C(=O)N[C@@H](Cc1ccccc1)C(N)=O)N(C)C(=O)[C@@H](Cc1c[nH]c2ccccc12)NC(=O)CNC(=O)[C@@H](C)NC(=O)[C@@H](N)Cc1ccc(O)cc1 (H-Y[dA]G[dW][NMeNle]DF-NH2)
pKi [9]: 7.49 | pKi [5]: 8.89 | pKi [6]: 8.72 | pKi (Mu-type opioid receptor [7]): 7.70

CCCC[C@H](NC(C)=O)C(=O)N[C@H]1CC(=O)NCCCC[C@@H](C(=O)NCC(=O)N2CCC[C@H]2C(=O)N[C@H](C(N)=O)C(C)C)NC(=O)[C@H](Cc2c[nH]c3ccccc23)NC(=O)[C@H](CCCN=C(N)N)NC(=O)[C@@H](Cc2ccccc2)NC(=O)[C@H](Cc2c[nH]cn2)NC1=O
pEC50 (Anolis carolinensis [1]): 11.00 | pEC50 [2]: 9.30

CCCC[C@H](NC(C)=O)C(=O)N[C@H]1CCC(=O)NCCCC[C@@H](C(N)=O)NC(=O)[C@H](Cc2c[nH]c3ccccc23)NC(=O)[C@H](CCCN=C(N)N)NC(=O)[C@@H](Cc2ccccc2)NC(=O)[C@H](Cc2c[nH]cn2)NC1=O
pEC50 (Anolis carolinensis [1]): 9.96 | pEC50 [2]: 9.00
